In patent US20040171489A1, “Synergistic active compound combinations for controlling harmful plants” (priority 1998, published 2004):
Structures can show the parent of a compound that is named as a salt.

Columns and labels:
Sorghum verticilliflorum = test: Example 13 field trial, 2- to 4-leaf stage: herbicidal effect; assay type: in vivo; conditions: 17 days after application
Experimental: (§1) The herbicidal efficacy of the active compounds or active compound mixtures was scored visually using the treated plots in comparison to untreated control plots. The damage and development of all above-ground parts of the plants were recorded. Scoring was carried out using a percentage scale (100% effect=all plants killed; 50% effect=50% of the plants and the green parts of the plants killed; 0% effect=no noticeable effect=like control plot. The scores of in each case 4 plots were averaged.
(§2) If the observed activity values already exceed the formal sum of the values for the trials with the individual applications, they also exceed the expected value according to Colby which is calculated using the following formula and which is likewise considered to be an indication of synergism (cf. S. R. Colby; in Weeds 15 (1967) p. 20 to 22):
(§3) Crop plants were grown outdoors on plots under natural outdoor conditions, and seeds or rhizome pieces of typical harmful plants were laid out or the natural weed growth was utilized. Treatment with the compositions according to the invention was carried out after the harmful plants had emerged and the crop plants were, generally, at the 2- to 4-leaf stage; in some cases (as stated), application of individual active compounds or active compound combinations was carried out pre-emergence (cf. Section 1) or post-emergence (cf. Section 2) or as a sequential treatment partly pre-emergence and/or post-emergence. After the application, for example 2, 4, 6 and 8 weeks after the application, the effect of the preparations was scored visually by comparison with untreated controls (cf. scoring in Section 1). In the field trial as well, the compositions according to the invention have synergistic herbicidal activity against a broad spectrum of economically important weed grasses and broad-leaved weeds. […] Moreover, the effects in essential phases of the scoring period were above the expected values according to Colby, also indicating synergism. In contrast, the crop plants were, as a consequence of the treatments with the herbicidal compositions, damaged only to a small degree, if at all.

summer wheat = test: Example 13 field trial, 2- to 4-leaf stage: crop damage; assay type: in vivo, Triticum aestivum; conditions: 17 days after application
Experimental: as §1, §2, §3

Matricaria chamomilla = test: Example 14 field trial, 2- to 4-leaf stage: herbicidal effect; assay type: in vivo; conditions: 28 days after application
Experimental: as §1, §2, §3

Lamium purpurea = test: Example 12 field trial, 2- to 4-leaf stage: herbicidal effect; assay type: in vivo; conditions: 42 days after application
Experimental: as §1, §2, §3

winter wheat [1] = test: Example 12 field trial, 2- to 4-leaf stage: crop damage; assay type: in vivo, Triticum aestivum
Experimental: as §1, §2, §3

Monochoria vaginalis = test: Example 22 field trial, 2-leaf stage: herbicidal effect; assay type: in vivo; conditions: 60 g of ai/ha; 14 days after application
Experimental: as §1, §2, §3

Oryza sativa (rice) = test: Example 22 field trial, 2-leaf stage: crop damage; assay type: in vivo; conditions: 60 g of ai/ha; 14 days after application
Experimental: as §1, §2, §3

Papaver rhoeas = test: Example 5 field trial, 2-4 leaf stage: herbicidal effect; assay type: in vivo; conditions: 2.5 g of ai/ha; 28 days after application
Experimental: as §1, §2
as §3, with “In contrast, the crop plants were, as a consequence of the treatments with the herbicidal compositions, damaged only to a small degree, if at all.” left out

winter barley = test: Example 5 field trial, 2-4 leaf stage: crop damage; assay type: in vivo, Hordeum vulgare; conditions: winter barley (Hordeum vulgare), in vivo, 28 days
Experimental: as §1, §2
as §3, with “In contrast, the crop plants were, as a consequence of the treatments with the herbicidal compositions, damaged only to a small degree, if at all.” left out

winter wheat [2] = test: Example 11 field trial, 2- to 4-leaf stage: crop damage; assay type: in vivo, Triticum aestivum; conditions: 28 days after application
Experimental: as §1, §2, §3

Capsella bursa-pastoris = test: Example 11 field trial, 2- to 4-leaf stage: herbicidal effect; assay type: in vivo; conditions: 28 days after application
Experimental: as §1, §2, §3

winter wheat [3] = test: Example 10 pre-emergence application, fall: crop damage; assay type: in vivo, Triticum aestivum; conditions: 250 g of ai/ha; 169 days after application
Text: (§4) Seeds or rhizome pieces of monocotyledonous and dicotyledonous weed plants are placed in sandy loam soil in pots and covered with soil. The compositions, formulated in the form of concentrated aqueous solutions, wettable powders or emulsion concentrates, are then applied to the surface of the soil cover as aqueous solution, suspension or emulsion at an application rate of 600 to 800 l of water/ha (converted), in various dosages. After the treatment, the pots are placed in a greenhouse and kept under good growth conditions for the weeds. After the test plants have emerged, the damage to the plants or the negative effects on the emergence is scored visually after a test period of 3 to 4 weeks by comparison with untreated controls. As shown by the test results, the compositions according to the invention have good herbicidal pre-emergence activity against a broad spectrum of weed grasses and broad-leaved weeds.
as §1, §2, §3

Galium aparine = test: Example 10 pre-emergence application, fall: herbicidal effect; assay type: in vivo; conditions: 250 g of ai/ha; 169 days after application
Text: as §4, §1, §2, §3

Zea mays (corn) = test: Example 17 field trial, pre-emergence: crop damage; assay type: in vivo; conditions: in vivo
Text: as §4
The herbicidal efficacy of the active compounds or active compound mixtures was scored visually using the treated plots in comparison to untreated control plots. The damage and development of all above-ground parts of the plants were recorded. […]
as §2
Crop plants were grown outdoors on plots under natural outdoor conditions, and seeds or rhizome pieces of typical harmful plants were laid out or the natural weed growth was utilized. […] After the application, for example 2, 4, 6 and 8 weeks after the application, the effect of the preparations was scored visually by comparison with untreated controls (cf. scoring in Section 1). […]

Ipomoea hederacea = test: Example 17 field trial, pre-emergence: herbicidal effect; assay type: in vivo; conditions: 16 days after application
Text: as §4, §1, §2, §3

Setaria faberi = test: as above; assay type: in vivo; conditions: 16 days after application
Text: as §4, §1, §2, §3

[4] = tested on: corn which is glufosinate-ammonium-resistant; test: Example 18 field trial, 3-leaf stage: crop damage; assay type: in vivo, Corn (LL); conditions: 31 days after application
Experimental: The damage and development of all above-ground parts of the plants were recorded.
Crop plants were grown outdoors on plots under natural outdoor conditions, and seeds or rhizome pieces of typical harmful plants were laid out or the natural weed growth was utilized.

Elusine indica = test: Example 18 field trial, 3-leaf stage: herbicidal effect; assay type: in vivo; conditions: 31 days after application
Experimental: as §1, §2
as §3, with “In contrast, the crop plants were, as a consequence of the treatments with the herbicidal compositions, damaged only to a small degree, if at all.” left out

Structure (SMILES): N#Cc1cc(Br)c(O)c(Br)c1 [(B2.3.1), bromoxynil]
- herbicidal effect, SORVE (Sorghum verticilliflorum; 225 g of ai/ha): 0%
- herbicidal effect, SORVE (Sorghum verticilliflorum; 450 g of ai/ha): 25%
- damage, TRZAS (summer wheat; 225 g of ai/ha): 0%
- damage, TRZAS (summer wheat; 450 g of ai/ha): 0%

Structure (SMILES): N#Cc1cc(I)c(O)c(I)c1 [(B2.3.2), ioxynil]
- herbicidal effect, MATCH (Matricaria chamomilla; 187 g of ai/ha): 30%
- herbicidal effect, MATCH (Matricaria chamomilla; 375 g of ai/ha): 45%

Structure (SMILES): COc1ncc(F)c2nc(S(=O)(=O)Nc3c(F)cccc3F)nn12 [(B2.5.2), florasulam]
- herbicidal effect, LAMPU (Lamium purpurea; 3.7 g of ai/ha): 35%
- herbicidal effect, LAMPU (Lamium purpurea; 7.5 g of ai/ha): 35%
- herbicidal effect, LAMPU (Lamium purpurea; 15 g of ai/ha): 40%
- damage, TRZAW (winter wheat [1]; 3.7 g of ai/ha, 42 days after application): 3%
- damage, TRZAW (winter wheat [1]; 7.5 g of ai/ha, 42 days after application): 3%
- damage, TRZAW (winter wheat [1]; 15 g of ai/ha, 42 days after application): 6%

Structure (SMILES): CCOC(=O)C(Cl)Cc1cc(-n2nc(C)n(C(F)F)c2=O)c(F)cc1Cl (stereo not shown) [(B2.6.3), carfentrazone-ethyl, reference compound]
- herbicidal effect, MOOVA (Monochoria vaginalis): 47%
- damage, ORYSA (Oryza sativa (rice)): 0%

Structure (SMILES): CCOC(=O)/C(Cl)=C/c1cc(N2C(=O)C3=C(CCCC3)C2=O)ccc1Cl [(B2.6.8), cinidon-ethyl]
- herbicidal effect, LAMPU (Lamium purpurea; 25 g of ai/ha): 60%
- herbicidal effect, LAMPU (Lamium purpurea; 50 g of ai/ha): 60%
- damage, TRZAW (winter wheat [1]; in vivo): 3%

Structure (SMILES): COc1nc(C)nc(NC(=O)NS(=O)(=O)c2cc(I)ccc2C(=O)O)n1 [(B3.1.4), iodosulfuron-methyl sodium salt, reference compound]
- herbicidal effect, PAPRH (Papaver rhoeas): 0%
- damage, HORVW (winter barley): 0%

Structure (SMILES): O=C(Nc1ccc(F)cc1F)c1cccnc1Oc1cccc(C(F)(F)F)c1 [(B3.4.2), diflufenican, reference compound]
- damage, TRZAW (winter wheat [2]; 75 g of ai/ha): 0%
- damage, TRZAW (winter wheat [2]; 150 g of ai/ha): 0%
- herbicidal effect, CAPPBP (Capsella bursa-pastoris; 75 g of ai/ha): 45%
- herbicidal effect, CAPPBP (Capsella bursa-pastoris; 150 g of ai/ha): 67%

Structure (SMILES): CNC1=C(c2cccc(C(F)(F)F)c2)C(=O)C(c2ccccc2)O1 (stereo not shown) [(B3.4.4), flurtamone]
- damage, TRZAW (winter wheat [3]): 2%
- herbicidal effect, GALAP (Galium aparine): 50%

Structure (SMILES): CS(=O)(=O)c1cc(C(F)(F)F)ccc1C(=O)c1cnoc1C1CC1 [(B3.4.5), isoxaflutole, reference compound]
- damage, ZEAMA (Zea mays (corn)): 0%
- herbicidal effect, IPOHE (Ipomoea hederacea; 105 g of ai/ha): 87%
- herbicidal effect, IPOHE (Ipomoea hederacea; 210 g of ai/ha): 85%
- herbicidal effect, SETFA (Setaria faberi; 105 g of ai/ha): 90%
- herbicidal effect, SETFA (Setaria faberi; 210 g of ai/ha): 93%

Structure (SMILES): CP(=O)(O)CCC(N)C(=O)O (stereo not shown) [(B4.1.2), glufosinate monoammonium salt]
- damage, Corn (LL) ([4]; 300 g of ai/ha): 0%
- damage, Corn (LL) ([4]; 600 g of ai/ha): 0%
- herbicidal effect, ELEIN (Elusine indica; 300 g of ai/ha): 55%
- herbicidal effect, ELEIN (Elusine indica; 600 g of ai/ha): 78%
